The text below walks through data of patent US10913745B2, “Octahydro-pyrrolo[3,4-c]-pyrrole derivatives and analogs thereof as autotaxin inhibitors” (Hoffmann-La Roche Inc., priority 2013, dated 2021).

The experiment has as its target ATX (human His-tagged) (Homo sapiens (Human), UniProt Q13822). The experiment in a line: Human ATX enzyme inhibition assay (fluorescence quenching, MR121 substrate). In kind it is biochemical. Particulars: MR121 substrate 1 μM, ATX 30 nM final, 30° C. The protocol: Human ATX Enzyme Inhibition Assay
ATX inhibition was measured by a fluorescence quenching assay using a specifically labeled substrate analogue (MR121 substrate). To obtain this MR121 substrate, BOC and TBS protected 6-amino-hexanoic acid (R)-3-({2-[3-(2-{2-[2-(2-amino-ethoxy)-ethoxy]-ethoxy}-ethoxy)-propionylamino]-ethoxy}-hydroxy-phosphoryloxy)-2-hydroxy-propyl ester (Ferguson et al., Org Lett 2006, 8 (10), 2023) was labeled with MR121 fluorophore (CAS 185308-24-1, 1-(3-carboxypropyl)-11-ethyl-1,2,3,4,8,9,10,11-octahydro-dipyrido[3,2-b:2′,3′-i]phenoxazin-13-ium) on the free amine of the ethanolamine side and then, after deprotection, subsequently with tryptophan on the side of the aminohexanoic acid. Assay working solutions were made as follows: Assay buffer (50 mM Tris-HCl, 140 mM NaCl, 5 mM KCl, 1 mM CaCl2, 1 mM MgCl2, 0.01% Triton-X-100, pH 8.0; ATX solution: ATX (human His-tagged) stock solution (1.08 mg/mL in 20 mM bicine, pH 8.5, 0.15 M NaCl, 10% glycerol, 0.3% CHAPS, 0.02% NaN3), diluted to 1.4-2.5× final concentration in assay buffer; MR121 substrate solution: MR121 substrate stock solution (800 μM MR121 substrate in DMSO), diluted to 2-5× final concentration in assay buffer. Test compounds (10 mM stock in DMSO, 8 μL) were obtained in 384 well sample plates (Corning Costar #3655) and diluted with 8 μL DMSO. Row-wise serial dilutions were made by transferring 8 μL cpd solution to the next row up to row O. The compound and control solutions were mixed five times and 2 μL were transferred to 384 well assay plates (Corning Costar #3702). Then, 15 μL of 41.7 nM ATX solution was added (30 nM final concentration), mixed five times and then incubated for 15 minutes at 30° C. 10 μL of MR121 substrate solution was added (1 μM final concentration), mixed 30 times and then incubated for 15 minutes at 30° C.
With `COC(=O)c1ccc(C(=O)N2C[C@H]3CN(C(=O)OCc4cc(Cl)cc(Cl)c4)C[C@H]3C2)cc1` [Example 1.09, (3aR,6aS)-3,5-dichlorobenzyl 5-(4-(methoxycarbonyl)benzoyl)hexahydropyrrolo[3,4-c]pyrrole-2(1H)-carboxylate], the concentration for half-maximal inhibition (IC50) was 118 nM.

Turning to `O=C(OCc1ccc(OC(F)(F)F)cc1)N1C[C@@H]2CN(C(=O)c3ccc(=O)[nH]c3)C[C@H]2C1` [Example 1.12, (3aS,6aS)-5-(6-oxo-1,6-dihydro-pyridine-3-carbonyl)-hexahydro-pyrrolo[3,4-c]pyrrole-2-carboxylic acid 4-trifluoromethoxy-benzyl ester], the half-maximal inhibitory concentration (IC50) was found to be 440 nM.

For the molecule `NS(=O)(=O)c1ccc(C(=O)N2C[C@H]3CN(C(=O)CCc4ccc(OC(F)(F)F)cc4F)C[C@H]3C2)cc1` [Example 8.07, 4-{(3aS,6aR)-5-[3-(2-fluoro-4-trifluoromethoxy-phenyl)-propionyl]-hexahydro-pyrrolo[3,4-c]pyrrole-2-carbonyl}-benzenesulfonamide], the 50% inhibitory concentration (IC50) was found to be 1 nM.

In turn, `NS(=O)(=O)c1ccc(C(=O)N2C[C@H]3CN(C(=O)CCc4ccc(OC(F)(F)F)cc4)C[C@@H]3C2)cc1` [Example 8, 4-{(3aR,6aR)-5-[3-(4-Trifluoromethoxy-phenyl)-propionyl]-hexahydro-pyrrolo[3,4-c]pyrrole-2-carbonyl}-benzenesulfonamide] yielded an IC50 of 8.5 nM.

Regarding `NS(=O)(=O)c1ccc(C(=O)N2C[C@H]3CCN(C(=O)OCc4cc(Cl)cc(Cl)c4)C[C@@H]3C2)cc1` (racemic) [Example 1.03, trans-3,5-dichlorobenzyl 2-(4-sulfamoylbenzoyl)hexahydro-1H-pyrrolo[3,4-c]pyridine-5(6H)-carboxylate], inhibition was half-maximal at 7 nM (IC50).

For the molecule `Nc1ccc(C(=O)N2C[C@H]3CN(C(=O)OCc4cc(Cl)cc(Cl)c4)C[C@H]3C2)nc1` [Example 1.07, (3aR,6aS)-3,5-dichlorobenzyl 5-(5-aminopicolinoyl)hexahydropyrrolo[3,4-c]pyrrole-2(1H)-carboxylate], the 50% inhibitory concentration (IC50) is 6110 nM.

Turning to `Cn1c(C(=O)N2C[C@H]3CN(C(=O)c4ccc(S(N)(=O)=O)cc4)C[C@H]3C2)cc2cc(OC(F)(F)F)ccc21` [Example 8.04, 4-[(3aR,6aS)-5-(1-Methyl-5-trifluoromethoxy-1H-indole-2-carbonyl)-hexahydro-pyrrolo[3,4-c]pyrrole-2-carbonyl]-benzenesulfonamide], the IC50 was found to be 166 nM.

The molecule `NS(=O)(=O)c1ccc(C(=O)N2C[C@H]3CN(C(=O)/C=C/c4ccc(OC(F)(F)F)cc4)C[C@@H]3C2)cc1` [Example 8.01, 4-{(3aR,6aR)-5-[(E)-3-(4-trifluoromethoxy-phenyl)-acryloyl]-hexahydro-pyrrolo[3,4-c]pyrrole-2-carbonyl}-benzenesulfonamide] displayed a half-maximal inhibitory concentration (IC50) of 7.5 nM.

`NS(=O)(=O)c1ccc(C(=O)N2C[C@H]3CN(C(=O)OCc4ccc(OC(F)(F)F)cc4)C[C@@H]3C2)cc1F` [Example 1.11, (3aS,6aS)-5-(3-fluoro-4-sulfamoyl-benzoyl)-hexahydro-pyrrolo[3,4-c]pyrrole-2-carboxylic acid 4-trifluoromethoxy-benzyl ester] displayed an IC50 of 1 nM.

Molecule `CCOc1cc(C(=O)N2C[C@@H]3CN(C(=O)c4ccc(S(N)(=O)=O)nc4)C[C@H]3C2)nc2ccccc12` [Example 1.21, 5-((3 aS,6aS)-5-(4-ethoxyquinoline-2-carbonyl)octahydropyrrolo[3,4-c]pyrrole-2-carbonyl)pyridine-2-sulfonamide] gave a half-inhibitory concentration (IC50) of 118 nM.

`NS(=O)(=O)c1ccc(S(=O)(=O)N2C[C@H]3CN(C(=O)OCc4cc(Cl)cc(Cl)c4)C[C@H]3C2)cc1` [Example 3, (3aR,6aS)-3,5-Dichlorobenzyl 5-(4-sulfamoylphenylsulfonyl)hexahydropyrrolo[3,4-c]pyrrole-2(1H)-carboxylate] came in with an IC50 of 31 nM.

Molecule `CC(C)(C)C(=O)Nc1cc(C#N)ccc1COC(=O)N1C[C@@H]2CN(C(=O)c3ccc(S(N)(=O)=O)cc3F)C[C@H]2C1` [Example 1.25, (3aS,6aS)-5-(2-fluoro-4-sulfamoyl-benzoyl)-hexahydro-pyrrolo[3,4-c]pyrrole-2-carboxylic acid 4-cyano-2-(2,2-dimethyl-propionylamino)-benzyl ester] returned an IC50 of 2 nM.

`NS(=O)(=O)c1ccc(C(=O)N2C[C@H]3CCN(C(=O)OCc4cc(Cl)cc(Cl)c4)C[C@@H]3C2)cc1` (single isomer, unassigned) [Example 9B, (+)-trans-3,5-dichlorobenzyl 2-(4-sulfamoylbenzoyl)hexahydro-1H-pyrrolo[3,4-c]pyridine-5(6H)-carboxylate] displayed an IC50 of 5 nM.

For the molecule `NS(=O)(=O)c1ccc(C(=O)N2C[C@H]3CN(C(=O)OCc4ccc(OC(F)(F)F)cc4F)C[C@H]3C2)cc1` [Example 7.01, (3aR,6aS)-5-(4-sulfamoyl-benzoyl)-hexahydro-pyrrolo[3,4-c]pyrrole-2-carboxylic acid 2-fluoro-4-trifluoromethoxy-benzyl ester], the half-inhibitory concentration (IC50) turned out to be 1 nM.

Molecule `N#Cc1ccc(C(=O)N2C[C@H]3CN(C(=O)OCc4cc(Cl)cc(Cl)c4)C[C@H]3C2)cc1` [Example 1.08, (3aR,6aS)-3,5-dichlorobenzyl 5-(4-cyanobenzoyl)hexahydropyrrolo[3,4-c]pyrrole-2(1H)-carboxylate] gave an IC50 of 1200 nM.

As for `CC(C)(C)C(=O)Nc1cc(C#N)ccc1COC(=O)N1C[C@@H]2CN(C(=O)c3ccc(S(N)(=O)=O)c(F)c3)C[C@H]2C1` [Example 1.22, (3aS,6aS)-5-(3-fluoro-4-sulfamoyl-benzoyl)-hexahydro-pyrrolo[3,4-c]pyrrole-2-carboxylic acid 4-cyano-2-(2,2-dimethyl-propionylamino)-benzyl ester], the concentration for half-maximal inhibition (IC50) was determined as 7 nM.

With `CNS(=O)(=O)c1ccc(C(=O)N2C[C@H]3CN(C(=O)OCc4cc(Cl)cc(Cl)c4)C[C@H]3C2)cc1` [Example 1, (3aR,6aS)-3,5-Dichlorobenzyl 5-(4-(N-methylsulfamoyl)benzoyl)hexahydropyrrolo[3,4-c]pyrrole-2(1H)-carboxylate], the half-maximal inhibitory concentration (IC50) came to 1160 nM.

`NS(=O)(=O)c1ccc(C(=O)N2C[C@H]3CCN(C(=O)OCc4cc(Cl)cc(Cl)c4)C[C@@H]3C2)cc1` (single isomer, unassigned) [Example 9A, (−)-trans-3,5-Dichlorobenzyl 2-(4-sulfamoylbenzoyl)hexahydro-1H-pyrrolo[3,4-c]pyridine-5(6H)-carboxylate] gave a concentration for half-maximal inhibition (IC50) of 4 nM.

Consider `O=C(OCc1cc(Cl)cc(Cl)c1)N1C[C@@H]2CN(C(=O)c3ccc(O)cn3)C[C@@H]2C1` [Example 1.01, (3aR,6aS)-3,5-dichlorobenzyl 5-(5-hydroxypicolinoyl)hexahydropyrrolo[3,4-c]pyrrole-2(1H)-carboxylate], for which the IC50 was found to be 293 nM.

As for `NS(=O)(=O)c1ccc(C(=O)N2C[C@H]3CN(C(=O)CCc4ccc(OC(F)(F)F)cc4)C[C@@H]3C2)cn1` [Example 1.20, 5-{(3 aR,6aR)-5-[3-(4-trifluoromethoxy-phenyl)-propionyl]-hexahydro-pyrrolo[3,4-c]pyrrole-2-carbonyl}-pyridine-2-sulfonic acid amide], the 50% inhibitory concentration (IC50) turned out to be 19 nM.

In turn, `NS(=O)(=O)c1ccc(C(=O)N2C[C@H]3CN(C(=O)OCc4ccc(OC(F)(F)F)cc4)C[C@@H]3C2)cc1` [Example 7.03, (3aS,6aS)-5-(4-sulfamoyl-benzoyl)-hexahydro-pyrrolo[3,4-c]pyrrole-2-carboxylic acid 4-trifluoromethoxy-benzyl ester] returned a 50% inhibitory concentration (IC50) of 4 nM.

Turning to `O=C(OCc1ccc(OC(F)(F)F)cc1)N1C[C@@H]2CN(C(=O)c3ccc(O)cc3)C[C@H]2C1` [Example 1.18, (3aS,6aS)-5-(4-hydroxy-benzoyl)-hexahydro-pyrrolo[3,4-c]pyrrole-2-carboxylic acid 4-trifluoromethoxy-benzyl ester], the 50% inhibitory concentration (IC50) was 13 nM.

`Nc1ccc(C(=O)N2C[C@H]3CN(C(=O)OCc4cc(Cl)cc(Cl)c4)C[C@H]3C2)cc1` [Example 1.06, (3aR,6aS)-3,5-dichlorobenzyl 5-(4-aminobenzoyl)hexahydropyrrolo[3,4-c]pyrrole-2(1H)-carboxylate] gave an IC50 of 255 nM.

In turn, `O=C(OCc1cc(Cl)cc(Cl)c1)N1C[C@@H]2CN(C(=O)c3ccc(O)cc3)C[C@@H]2C1` [Example 1.02, (3aR,6aS)-3,5-dichlorobenzyl 5-(4-hydroxybenzoyl)hexahydropyrrolo[3,4-c]pyrrole-2(1H)-carboxylate] returned a half-maximal inhibitory concentration (IC50) of 444 nM.
